Read-outs that look alike come from different tables or passages of the source.
Tests used:
EGFR (L858R T790M C797S) = target: T1, EGFR (L858R T790M C797S) (Homo sapiens, UniProt P00533, C797S/L858R/T790M); assay: Biochemical EGFR inhibition assay (Caliper mobility shift), EGFR LRTMCS mutant; conditions: inhibitory activity against EGFR LRTMCS mutant; apparent IC50; read-out: Ext Enz LRTMCS
T1 construct: purchased SignalChem E10-122VG
Procedure, shortened: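 Caliper mobility shift read-out: product and substrate peptides separated by electrophoresis and quantified. Reactions at 25° C. taken to 10–20% peptide phosphorylation, quenched with 35 mM EDTA. Apparent IC50 from percent activity vs log [compound].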

[1] = system: phosphorylation of EGFR (Tyr1068) in NCI-H1975 cell line that harbors the EGFR L858R T790M mutations; assay: NCI-H1975 pEGFR AlphaLISA assay; format: cell-based; conditions: 4-5 hours incubation, read-out: Ext pEGFR H1975
Procedure, shortened: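 NCI-H1975 cells (EGFR L858R/T790M) seeded overnight, then treated with compound for 4-5 h at 37 °C/5% CO2. After lysis, p-EGFR (Tyr1068) quantified by AlphaLISA SureFire Ultra with acceptor then donor beads; IC50 fitted from percent inhibition versus log concentration.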

[2] = Homo sapiens, NCI-H1975, inhibition of phosphorylation of mutant EGFR in NCI-H1975 cells

T1 sequence (P00533 25-1210 T790M/C797S/L858R): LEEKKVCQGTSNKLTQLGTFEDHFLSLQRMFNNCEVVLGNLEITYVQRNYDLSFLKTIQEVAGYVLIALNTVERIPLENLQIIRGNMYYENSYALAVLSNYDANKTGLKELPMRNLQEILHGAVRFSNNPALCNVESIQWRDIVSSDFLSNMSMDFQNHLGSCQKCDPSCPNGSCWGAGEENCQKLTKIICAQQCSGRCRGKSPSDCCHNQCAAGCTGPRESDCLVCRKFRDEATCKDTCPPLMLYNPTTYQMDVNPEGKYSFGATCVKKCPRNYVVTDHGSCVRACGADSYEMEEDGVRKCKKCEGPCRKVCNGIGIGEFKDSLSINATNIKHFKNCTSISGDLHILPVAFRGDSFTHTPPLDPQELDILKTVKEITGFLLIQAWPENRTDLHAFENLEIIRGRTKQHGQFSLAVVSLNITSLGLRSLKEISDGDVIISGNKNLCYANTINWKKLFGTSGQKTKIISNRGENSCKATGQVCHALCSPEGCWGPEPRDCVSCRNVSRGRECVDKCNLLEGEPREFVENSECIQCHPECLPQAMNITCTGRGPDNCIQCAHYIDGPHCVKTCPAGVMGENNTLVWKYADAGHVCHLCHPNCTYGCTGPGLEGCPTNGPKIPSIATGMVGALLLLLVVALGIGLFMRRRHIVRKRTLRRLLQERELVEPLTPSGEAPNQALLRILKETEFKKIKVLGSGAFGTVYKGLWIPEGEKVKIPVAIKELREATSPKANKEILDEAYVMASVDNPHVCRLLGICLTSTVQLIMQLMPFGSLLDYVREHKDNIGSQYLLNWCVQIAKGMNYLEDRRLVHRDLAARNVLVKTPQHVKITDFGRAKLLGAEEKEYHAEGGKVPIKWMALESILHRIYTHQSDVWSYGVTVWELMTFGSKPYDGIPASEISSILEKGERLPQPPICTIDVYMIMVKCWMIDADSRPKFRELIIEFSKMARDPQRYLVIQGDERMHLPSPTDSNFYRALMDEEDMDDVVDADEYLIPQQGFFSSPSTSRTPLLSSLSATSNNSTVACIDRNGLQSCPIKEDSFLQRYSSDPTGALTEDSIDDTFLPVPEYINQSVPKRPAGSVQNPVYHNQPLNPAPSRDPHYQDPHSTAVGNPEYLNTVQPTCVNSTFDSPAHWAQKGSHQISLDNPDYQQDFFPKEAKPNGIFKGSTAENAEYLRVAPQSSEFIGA

| SMILES | IC50 (EGFR (L858R T790M C797S)) | IC50 [1, 2] | IC50 ([1]; inhibition of phosphorylation of mutant EGFR in NCI-H1975 cells) |
| --- | --- | --- | --- |
| CO[C@@H]1CCN(c2nccc(Nc3cc4c(C(C)C)ccc(N5C[C@H](CS(C)(=O)=O)[C@H]5C)c4cn3)n2)C[C@H]1CO (single isomer, unassigned) [Compound 174, [(3S,4R)-1-[4-({8-[(2R,3S)-3-(methanesulfonylmethyl)-2-methylazetidin-1-yl]-5-(propan-2-yl)isoquinolin-3-yl}amino)pyrimidin-2-yl]-4-methoxypiperidin-3-yl]methanol or [(3R,4S)-1-[4-({8-[(2R,3S)-3-(methanesulfonylmethyl)-2-methylazetidin-1-yl]-5-(propan-2-yl)isoquinolin-3-yl}amino)pyrimidin-2-yl]-4-methoxypiperidin-3-yl]methanol] | ≤ 15 nM | 10.1 to 20 nM | – |
| CCS(=O)(=O)C[C@H]1CN(c2ccc(C(C)C)c3cc(Nc4ccnc(N5CC[C@@H](OC)[C@@H](O)C5)n4)ncc23)[C@@H]1C (single isomer, unassigned) [Compound 176, (3S,4R)-1-[4-({8-[(2R,3S)-3-[(ethanesulfonyl)methyl]-2-methylazetidin-1-yl]-5-(propan-2-yl)isoquinolin-3-yl}amino)pyrimidin-2-yl]-4-methoxypiperidin-3-ol, or (3R,4S)-1-[4-({8-[(2R,3S)-3-[(ethanesulfonyl)methyl]-2-methylazetidin-1-yl]-5-(propan-2-yl)isoquinolin-3-yl}amino)pyrimidin-2-yl]-4-methoxypiperidin-3-ol] | ≤ 15 nM | ≤ 10 nM | – |
| CCS(=O)(=O)C[C@H]1CN(c2ccc(C(C)C)c3cc(Nc4ccnc(N5CC[C@H](OC)[C@@H](O)C5)n4)ncc23)[C@@H]1C (single isomer, unassigned) [Compound 177, (3S,4S)-1-(4-(8-((2R,3S)-3-(ethylsulfonylmethyl)-2-methylazetidin-1-yl)-5-isopropylisoquinolin-3-ylamino)pyrimidin-2-yl)-4-methoxypiperidin-3-ol or (3R,4R)-1-(4-(8-((2R,3S)-3-(ethylsulfonylmethyl)-2-methylazetidin-1-yl)-5-isopropylisoquinolin-3-ylamino)pyrimidin-2-yl)-4-methoxypiperidin-3-ol] | ≤ 15 nM | ≤ 10 nM | – |
| CCS(=O)(=O)C[C@H]1CN(c2ncc(C(C)C)c3cc(Nc4ccnc(N5CC[C@@H](OC)[C@@H](O)C5)n4)ncc23)[C@@H]1C (single isomer, unassigned) [Compound 178] | ≤ 15 nM | ≤ 10 nM | – |
| CCS(=O)(=O)C[C@H]1CN(c2ncc(C(C)C)c3cc(Nc4ccnc(N5CC[C@H](OC)[C@@H](O)C5)n4)ncc23)[C@@H]1C (single isomer, unassigned) [Compound 179] | ≤ 15 nM | ≤ 10 nM | – |
| CC(C)c1ccc(N2CC(CS(C)(=O)=O)C2)c2cnc(Nc3ccnc(N4CCC5(OCCO5)[C@H](F)C4)n3)cc12 (single isomer, unassigned) [Compound 180, N-{2-[(6R)-6-fluoro-1,4-dioxa-8-azaspiro[4.5]decan-8-yl]pyrimidin-4-yl}-8-[3-(methanesulfonylmethyl)azetidin-1-yl]-5-(propan-2-yl)isoquinolin-3-amine or N-{2-[(6S)-6-fluoro-1,4-dioxa-8-azaspiro[4.5]decan-8-yl]pyrimidin-4-yl}-8-[3-(methanesulfonylmethyl)azetidin-1-yl]-5-(propan-2-yl)isoquinolin-3-amine] | ≤ 15 nM | 10.1 to 20 nM | – |
| CC(C)c1ccc(N2CC(CS(C)(=O)=O)C2)c2cnc(Nc3ccnc(N4CCC5(OCCO5)[C@H](F)C4)n3)cc12 (single isomer, unassigned) [Compound 181, N-{2-[(6R)-6-fluoro-1,4-dioxa-8-azaspiro[4.5]decan-8-yl]pyrimidin-4-yl}-8-[3-(methanesulfonylmethyl)azetidin-1-yl]-5-(propan-2-yl)isoquinolin-3-amine or N-{2-[(6S)-6-fluoro-1,4-dioxa-8-azaspiro[4.5]decan-8-yl]pyrimidin-4-yl}-8-[3-(methanesulfonylmethyl)azetidin-1-yl]-5-(propan-2-yl)isoquinolin-3-amine] | ≤ 15 nM | – | 10.1 to 20 nM |
| CCS(=O)(=O)CC1CN(c2ccc(C(C)C)c3cc(Nc4ccnc(N5C[C@@H](F)[C@@H](O)C(C)(C)C5)n4)ncc23)C1 (single isomer, unassigned) [Compound 182, (4S,5R)-1-{4-[(8-{3-[(ethanesulfonyl)methyl]azetidin-1-yl}-5-(propan-2-yl)isoquinolin-3-yl)amino]pyrimidin-2-yl}-5-fluoro-3,3-dimethylpiperidin-4-ol or (4R,5S)-1-{4-[(8-{3-[(ethanesulfonyl)methyl]azetidin-1-yl}-5-(propan-2-yl)isoquinolin-3-yl)amino]pyrimidin-2-yl}-5-fluoro-3,3-dimethylpiperidin-4-ol] | ≤ 15 nM | ≤ 10 nM | – |
| CC(C)c1ccc(N2C[C@@H](CS(C)(=O)=O)[C@@H]2C)c2cnc(Nc3ccnc(N4C[C@@H](F)[C@@H](O)C(C)(C)C4)n3)cc12 (single isomer, unassigned) [Compound 183, (4S,5R)-5-fluoro-1-[4-({8-[(2S,3R)-3-(methanesulfonylmethyl)-2-methylazetidin-1-yl]-5-(propan-2-yl)isoquinolin-3-yl}amino)pyrimidin-2-yl]-3,3-dimethylpiperidin-4-ol or (4R,5S)-5-fluoro-1-[4-({8-[(2S,3R)-3-(methanesulfonylmethyl)-2-methylazetidin-1-yl]-5-(propan-2-yl)isoquinolin-3-yl}amino)pyrimidin-2-yl]-3,3-dimethylpiperidin-4-ol] | 15.1 to 20 nM | ≤ 10 nM | – |
| CC[C@@]1(F)CN(c2nccc(Nc3cc4c(C(C)C)ccc(N5C[C@H](CS(C)(=O)=O)[C@H]5C)c4cn3)n2)CC[C@@H]1O (single isomer, unassigned) [Compound 184, (3R,4S)-3-ethyl-3-fluoro-1-[4-({8-[(2R,3S)-3-(methanesulfonylmethyl)-2-methylazetidin-1-yl]-5-(propan-2-yl)isoquinolin-3-yl}amino)pyrimidin-2-yl]piperidin-4-ol or (3S,4R)-3-ethyl-3-fluoro-1-[4-({8-[(2R,3S)-3-(methanesulfonylmethyl)-2-methylazetidin-1-yl]-5-(propan-2-yl)isoquinolin-3-yl}amino)pyrimidin-2-yl]piperidin-4-ol] | ≤ 15 nM | ≤ 10 nM | – |
| CO[C@@H]1CCN(c2nccc(Nc3cc4c(C(C)C)ccc(N5C[C@H](CS(C)(=O)=O)[C@H]5C)c4cn3)n2)C[C@]1(C)F (single isomer, unassigned) [Compound 185] | 20.1 to 30 nM | ≤ 10 nM | – |
| CCS(=O)(=O)C[C@H]1CN(c2ccc(C(C)C)c3cc(Nc4ccnc(N5CC[C@@](C)(O)[C@@H](F)C5)n4)ncc23)[C@@H]1C (single isomer, unassigned) [Compound 186] | ≤ 15 nM | ≤ 10 nM | – |
| CCS(=O)(=O)C[C@H]1CN(c2ccc(C(C)C)c3cc(Nc4ccnc(N5CC[C@](C)(O)[C@H](F)C5)n4)ncc23)[C@@H]1C (single isomer, unassigned) [Compound 187] | 30.1 to 100 nM | 10.1 to 20 nM | – |
| CC(C)c1cnc(N2CC(CS(=O)(=O)C(C)C)C2)c2cnc(Nc3ccnc(N4CC[C@@H](O)[C@@](C)(F)C4)n3)cc12 (single isomer, unassigned) [Compound 188] | ≤ 15 nM | ≤ 10 nM | – |
| CCS(=O)(=O)C[C@@H]1CN(c2ncc(C(C)C)c3cc(Nc4ccnc(N5CC[C@@H](O)[C@@](C)(F)C5)n4)ncc23)[C@H]1C (single isomer, unassigned) [Compound 189] | ≤ 15 nM | ≤ 10 nM | – |
| CCS(=O)(=O)C[C@H]1CN(c2ncc(C(C)C)c3cc(Nc4ccnc(N5CC[C@@](C)(O)[C@@H](F)C5)n4)ncc23)[C@@H]1C (single isomer, unassigned) [Compound 190] | ≤ 15 nM | ≤ 10 nM | – |
| CCS(=O)(=O)C[C@H]1CN(c2ncc(C(C)C)c3cc(Nc4ccnc(N5CC[C@](C)(O)[C@H](F)C5)n4)ncc23)[C@@H]1C (single isomer, unassigned) [Compound 191] | ≤ 15 nM | ≤ 10 nM | – |
| CN(C)CCS(=O)(=O)CC1CN(c2cccc3cc(Nc4ccnc(N5C[C@@H](F)[C@@H](O)C(C)(C)C5)n4)ncc23)C1 (single isomer, unassigned) [Compound 192, (4S,5R)-1-(4-{[8-(3-{[2-(dimethylamino)ethanesulfonyl]methyl}azetidin-1-yl)isoquinolin-3-yl]amino}pyrimidin-2-yl)-5-fluoro-3,3-dimethylpiperidin-4-ol or (4R,5S)-1-(4-{[8-(3-{[2-(dimethylamino)ethanesulfonyl]methyl}azetidin-1-yl)isoquinolin-3-yl]amino}pyrimidin-2-yl)-5-fluoro-3,3-dimethylpiperidin-4-ol] | ≤ 15 nM | 10.1 to 20 nM | – |
| CO[C@@H]1CCN(c2nccc(Nc3cc4c(C(C)C)ccc(N5CC([C@H](CN)S(C)(=O)=O)C5)c4cn3)n2)C[C@@H]1F (single isomer, unassigned) [Compound 193, 8-{3-[(1R)-2-amino-1-methanesulfonylethyl]azetidin-1-yl}-N-{2-[(3S,4R)-3-fluoro-4-methoxypiperidin-1-yl]pyrimidin-4-yl}-5-(propan-2-yl)isoquinolin-3-amine or 8-{3-[(1S)-2-amino-1-methanesulfonylethyl]azetidin-1-yl}-N-{2-[(3S,4R)-3-fluoro-4-methoxypiperidin-1-yl]pyrimidin-4-yl}-5-(propan-2-yl)isoquinolin-3-amine] | ≤ 15 nM | ≤ 10 nM | – |
